From patent US20210330611A1, “THERAPY FOR NEUROLOGICAL DISEASES/DISORDERS” (priority 2020, published 2021)
Counter-ions that a name gives are not always drawn. Like-named read-outs stand apart in the source and are kept apart here.

What was measured:
[1] = test system: fibrin-induced microglia activation; test: Image-based assay of fibrin-induced microglia activation (HTS and dose response); type: cell-based, rat; details: for IC50 / inhibition at 10 µM: Rattus norvegicus, Microglia; for inhibition at 10 µM: primary microglia HTS, read-out: Fibrin % inhibition
[2] = test system: fibrin- and LPS-induced microglia activation; test: cells; type: cell-based, rat; details: for inhibition at 10 µM: Rattus norvegicus
in vitro [3] = details: rat
primary rat microglia [4] = test: Cell toxicity (dead cells, size <150 μm2) in coated fibrin (cFib) assay; details: for Fibrin % cell toxicity: primary microglia HTS, fibrin stimulation, decreased size (<150 μm^2) as marker of toxicity;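 on Fibrin % cell toxicity: share of dead cells sized under 150 µm2 at 10 µM in fibrin-stimulated microglia HTS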
[5] = test system: LPS-induced microglia activation; test: Image-based assay of LPS-induced microglia activation (HTS and dose response); type: cell-based, rat; details: Rattus norvegicus, Microglia; for inhibition at 10 µM: primary microglia HTS, read-out: LPS % inhibition
in vitro [6] = details: rat, Cell Toxicity IC50 (uM) [cFib assay]
primary rat microglia [7] = test: Cell toxicity (dead cells, size <150 μm2) in LPS assay; details: for LPS % cell toxicity: primary microglia HTS, LPS stimulation, decreased size (<150 μm^2) as marker of toxicity; for IC50: read-out: Cell Toxicity IC50 (uM) [LPS assay], LPS assay
[8] = 48 h, Table 1, dose response 0.001-20 μM, triplicates, primary rat microglia, 48 h, read-out: Fibrin IC50
[9] = dose response, fibrin-induced microglia activation, read-out: Fibrin IC50
[10] = fibrin-induced microglia activation, dose response, read-out: Fibrin IC50 (uM) (Suppl. Table 7)
[11] = fibrin stimulation, increased cell size (>800 μm^2) as marker of activation
[12] = HTS of 1907 compounds, quadrant by fibrin and LPS inhibition
[13] = Microglia, HTS hit classification, read-out: Hit
[14] = hit classification in microglia HTS, read-out: Cherry-picked Hit (Suppl. Table 7)
[15] = quadrant by fibrin and LPS inhibition in HTS of 1907 compounds
[16] = 48 h, Table 1, dose response 0.001-20 μM, triplicates, primary rat microglia, 48 h, read-out: LPS IC50
[17] = 48 h, LPS stimulation, increased cell size (>800 μm^2) as marker of activation
[18] = LPS-induced microglia activation, dose response, read-out: LPS IC50 (uM) (Suppl. Table 7)
[19] = dose response, LPS-induced microglia activation, read-out: LPS IC50
[20] = Table 3, read-out: Fibrin IC50 (uM) (Suppl. Table 7)
[21] = Microglia, Table 3, read-out: Cherry-picked Hit (Suppl. Table 7)
[22] = Table 3, read-out: LPS IC50 (uM) (Suppl. Table 7)

Row | SMILES | IC50 [1, 8] | IC50 [1, 9] | IC50 [1, 10] | inhibition at 10 µM [1, 11] | Quadrant (FIG. 5b) [2, 12] | inhibition at 10 µM [2, 13] | inhibition at 10 µM [2, 14] | Quadrant (FIG. 5b) ([2]; Table 1, screen at 10 μM) | Quadrant (FIG. 5b) [2, 15] | IC50 (in vitro [3]) | Fibrin % cell toxicity (primary rat microglia [4]) | IC50 [5, 16] | inhibition at 10 µM [5, 17] | IC50 [5, 18] | IC50 [5, 19] | IC50 (in vitro [6]; cFib assay) | LPS % cell toxicity (primary rat microglia [7]) | IC50 [1, 20] | inhibition at 10 µM [2, 21] | Quadrant (FIG. 5b) ([2]; Table 3, screen at 10 μM) | other results
1 | OCc1ccccc1O[C@@H]1O[C@H](CO)[C@@H](O)[C@H](O)[C@H]1O [Salicin, reference compound] | > 20 µM | > 20 µM | > 20 µM | 76% | Q2 | > 50% | > 50% | Q2 | Q2 | > 20 µM | 1% | > 20 µM | 61% | > 20 µM | > 20 µM | > 20 µM | 1% | – | – | – | –
2 | O=C1C=C2C=C[C@@H]3C[C@@]2(O1)[C@H]1CCCCN31 [Securinine, reference compound] | 2 µM | 2 µM | 2 µM | 104% | Q2 | > 50% | – | Q2 | Q2 | 12 µM | 2% | 6 µM | 106% | 6 µM | 6 µM | > 20 µM | 1% | 2 µM | > 50% | Q2 | Fibrin Selectivity [1]: 3; Fibrin Selectivity (LOG10) [1]: 0.40; IC50 [5, 22]: 6 µM; IC50 (in vitro [6]; Table 3): > 20 µM
3 | CC(CCc1ccc(O)cc1)NCC(O)c1ccc(O)cc1 (centres unmarked) [Ractopamine hydrochloride, reference compound] | 20 µM | 20 µM | 20 µM | 50% | Q3 | > 50% | > 50% | Q3 | Q3 | > 20 µM | 1% | > 20 µM | 39% | > 20 µM | > 20 µM | > 20 µM | 0% | – | – | – | –
4 | O=P(O)(O)C(O)(Cc1cccnc1)P(=O)(O)O [Risedronate sodium, reference compound] | 19 µM | 19 µM | 19 µM | 81% | Q3 | > 50% | > 50% | Q3 | Q3 | > 20 µM | 2% | > 20 µM | 16% | > 20 µM | > 20 µM | > 20 µM | 0% | – | – | – | –
5 | CCCCC1=NC2(CCCC2)C(=O)N1Cc1ccc(-c2ccccc2-c2nnn[nH]2)cc1 [Irbesartan, reference compound] | > 20 µM | > 20 µM | > 20 µM | 66% | Q3 | > 50% | > 50% | Q3 | Q3 | > 20 µM | 2% | > 20 µM | 31% | > 20 µM | > 20 µM | > 20 µM | 1% | – | – | – | –
6 | CC1(C)O[C@@H]2C[C@H]3[C@@H]4C[C@H](F)C5=CC(=O)C=C[C@]5(C)[C@H]4[C@@H](O)C[C@]3(C)[C@]2(C(=O)CO)O1 [Flunisolide, reference compound] | < 0.001 µM | < 0.001 µM | < 0.001 µM | 104% | Q2 | > 50% | > 50% | Q2 | Q2 | > 20 µM | – | < 0.001 µM | 101% | < 0.001 µM | < 0.001 µM | > 20 µM | – | – | – | – | –
7 | C[C@]12C=CC(=O)C=C1CC[C@H]1[C@@H]3C[C@@H](O)[C@](O)(C(=O)CO)[C@@]3(C)C[C@H](O)[C@@]12F [Triamcinolone, reference compound] | 0.04 µM | 0.04 µM | 0.04 µM | 107% | – | > 50% | – | Q2 | Q2 | > 20 µM | – | 0.4 µM | 99% | 0.4 µM | 0.4 µM | > 20 µM | – | 0.04 µM | > 50% | Q2 | Fibrin Selectivity [1]: 10; Fibrin Selectivity (LOG10) [1]: 1.00; inhibition at 10 µM ([1]; 10 μM, fibrin-stimulated, cell size >800 μm^2 as marker of activation): -2%; IC50 [5, 22]: 0.4 µM; inhibition at 10 µM ([5]; 10 μM, LPS-stimulated, cell size >800 μm^2 as marker of activation): -14%; IC50 (in vitro [6]; Table 3): > 20 µM; IC50 (primary rat microglia [7]): > 20 µM
8 | CC[C@@]1(O)C(=O)OCc2c1cc1n(c2=O)Cc2cc3c([N+](=O)[O-])cccc3nc2-1 [Rubitecan, reference compound] | 2 µM | 2 µM | 2 µM | 73% | Q3 | > 50% | – | Q3 | Q3 | > 20 µM | – | 9 µM | 30% | 9 µM | 9 µM | > 20 µM | – | 2 µM | > 50% | Q3 | IC50 [5, 22]: 9 µM; IC50 (in vitro [6]; Table 3): > 20 µM; IC50 (primary rat microglia [7]): > 20 µM
9 | C[C@@H]1C[C@H]2[C@@H]3CCC4=CC(=O)C=C[C@]4(C)[C@@]3(F)[C@@H](O)C[C@]2(C)[C@@]1(O)C(=O)CO [Dexamethasone, reference compound] | 15 µM | 15 µM | 15 µM | – | Q3 | > 50% | > 50% | Q3 | – | > 20 µM | – | > 20 µM | – | > 20 µM | > 20 µM | > 20 µM | – | – | – | – | IC50 ([1]; Table 7, read-out: fib_IC50): 0.002 µM; Quadrant (FIG. 5b) ([2]; Table 2, screen at 10 μM): Q3; IC50 ([5]; Table 7, read-out: LPS_IC50): 0.002 µM
10 | CC[C@@H](C(=O)[C@@H](C)[C@@H](O)[C@H](C)[C@@H]1O[C@@H]([C@@H](CC)C(=O)O)CC[C@@H]1C)[C@H]1O[C@]2(C=C[C@@H](O)[C@]3(CC[C@@](C)([C@H]4CC[C@](O)(CC)[C@H](C)O4)O3)O2)[C@H](C)C[C@@H]1C [Salinomycin, sodium, reference compound] | 2 µM | 2 µM | 2 µM | 100% | Q2 | > 50% | > 50% | Q2 | Q2 | – | 3% | 2 µM | 101% | 2 µM | 2 µM | > 20 µM | 1% | – | – | – | Activity ([2]; Table 7, fib = fibrin, LPS, tox = toxicity, sodium): fib/LPS; IC50 (primary rat microglia [4]; Rattus norvegicus, Microglia, read-out: dead_IC50 (uM), Table 7, fibrin or LPS assay not specified): 3.86 µM
